A short description of the data set: acid dissociation constant pKa of the first material. Conditions: for pKa (H2O): acid dissociation constant in water, first materials of the electron injection layer.

Read-outs that look alike come from different tables or passages of the source.

Description: In the present invention, the “pKa” usually means the “acid dissociation constant in water”. When the pKa cannot be measured in water, it means the “acid dissociation constant in dimethyl sulfoxide (DMSO)”, and when the pKa cannot be measured even in DMSO, it means the “acid dissociation constant in acetonitrile”. The pKa preferably means the “acid dissociation constant in water”.

In general, pKa refers to the pH at which an ionisable group is half protonated. In turn, `COc1cccnc1` [3-MeOP, 3-methoxypyridine] had a pKa (water) of 4.88. The same measure, in the same setting: next, `CN(C)c1ccncc1` [4-DMAP, 4-dimethylaminopyridine]: 9.7. Take `CN(C)c1ccc2cc3ccc(N(C)C)cc3nc2c1` [AOB, acridine orange]: the pKa was no less than 1. In the case of `C1CCC2=NCCCN2CC1` [DBU, 1,8-diazabicyclo[5.4.0]undecene-7], the “pKa (H2O)” value stood at 12.5. On the same count and under the same terms, next, `CN(C)P(=NC(C)(C)C)(N=P(N(C)C)(N(C)C)N(C)C)N(C)C` [Phosphazene base P2-t-Bu]: 20. Consider `C1=Cc2ccccc2C1` [indene], for which the pKa was no less than 1.

Source of the values: US11183645B2, “Organic thin film and method for manufacturing organic thin film, organic electroluminescence element, display device, illumination device, organic thin film solar cell, thin film transistor, and coating composition” (NIPPON HOSO KYOKAI, priority 2015, dated 2021).
